Measured values: US5891877A, “Pharmaceutical compounds” (Xenova Limited, priority 1996, dated 1999)

Target: PAI-1 (Homo sapiens, UniProt P05121)
Assay: PAI-1 inhibition in the S2251 chromogenic substrate assay (PAI functional assay)
Assay type: biochemical
Conditions: for INHIBITION OF PAI-1 (degree of inhibition): Table 1, first part, unit assumed; for IC50: PAI-1, S2251 assay, Table 2
Method: In this assay, a compound is incubated with PAI-1 prior to addition to the tPA assay system. Inhibition of PAI-1 results in the production of plasmin from plasminogen. […]
Compounds of formula (A) were tested in a PAI chromogenic substrate assay. […] In turn, the plasmin cleaved the chromogenic substrate S2251 (Kabi-Vitrum) producing pNA (p-nitroaniline) which was detected scectrophotometrically at 405 nm.

PAI-1, sequence (P05121 24-402): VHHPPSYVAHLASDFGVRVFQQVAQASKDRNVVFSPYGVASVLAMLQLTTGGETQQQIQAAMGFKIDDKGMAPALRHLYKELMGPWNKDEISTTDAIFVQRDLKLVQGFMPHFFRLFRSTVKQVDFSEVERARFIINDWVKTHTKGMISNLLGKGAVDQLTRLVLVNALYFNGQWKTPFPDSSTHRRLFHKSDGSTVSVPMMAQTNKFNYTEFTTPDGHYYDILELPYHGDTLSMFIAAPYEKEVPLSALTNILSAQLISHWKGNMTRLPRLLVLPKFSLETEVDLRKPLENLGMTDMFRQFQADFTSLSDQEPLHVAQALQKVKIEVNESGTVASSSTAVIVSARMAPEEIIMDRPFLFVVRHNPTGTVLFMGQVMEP

Structure (SMILES) | INHIBITION OF PAI-1 (degree of inhibition) (6.25 μm) | INHIBITION OF PAI-1 (degree of inhibition) (12.5 μm) | INHIBITION OF PAI-1 (degree of inhibition) (25 μm) | INHIBITION OF PAI-1 (degree of inhibition) (50 μm) | INHIBITION OF PAI-1 (degree of inhibition) (100 μm) | IC50
CC(C)(C)OC(=O)n1cccc1/C=c1\[nH]c(=O)/c(=C/c2ccccc2)[nH]c1=O [Compound 1470, (3Z,6Z)-3-Benzylidene-6-(2-(1-tertbutoxycarbonyl)pyrrolyl)methylene-2,5-piperazinedione] | 0% | 0% | 2% | 20% | 70% | 50 to 100 µM
CC(C)(C)OC(=O)n1cc(/C=c2\[nH]c(=O)/c(=C/c3ccccc3)[nH]c2=O)c2ccccc21 [Compound 1471, (3Z,6Z)-3-Benzylidene-6-(3-(1-tert-butoxycarbonyl)indolyl)methylene-2,5-piperazinedione] | 0% | 6% | 20% | 60% | 80% | 25 to 50 µM
COc1ccc(/C=c2\[nH]c(=O)/c(=C/c3cccs3)[nH]c2=O)cc1 [Compound 1474, (3Z,6Z)-3-(4-Methoxybenzylidene)-6-(2-thienylmethylene)-2,5-piperazinedione] |  |  | 28% | 52% | 64% | 25 to 50 µM
COc1ccc(/C=c2\[nH]c(=O)/c(=C/c3ccoc3)[nH]c2=O)cc1 [Compound 1476, (3Z,6Z)-3-(4-Methoxybenzylidene)-6-(3-furylmethylene)-2,5-piperazinedione] |  |  | 18% | 48% | 68% | 50 to 100 µM
COc1ccc(/C=c2\[nH]c(=O)/c(=C/c3cn(C(=O)OC(C)(C)C)c4ccccc34)[nH]c2=O)cc1 [Compound 1506, (3Z,6Z)-3-(4-Methoxybenzylidene)-6-(3-(1-tert-butoxycarbonyl)indolyl)methylene-2,5-piperazinedione] | 2% | 4% | 26% | 58% | 75% | 25 to 50 µM
COc1ccc(/C=c2\[nH]c(=O)/c(=C/c3cccn3C(=O)OC(C)(C)C)[nH]c2=O)cc1 [Compound 1507, (3Z,6Z)-3-(4-Methoxybenzylidene)-6-(2-(1-tertbutoxycarbonyl)pyrrolyl)methylene-2,5-piperazinedione] | 1% | 1% | 45% | 62% | 78% | 25 to 50 µM
O=c1[nH]/c(=C\c2c[nH]c3ccccc23)c(=O)[nH]/c1=C\c1ccccc1 [Compound 1509, (3Z,6Z)-3-Benzylidene-6-(3-indolylmethylene)-2,5-piperazinedione] | 1% | 1% | 1% | 35% | 58% | 50 to 100 µM
O=c1[nH]/c(=C\c2c(Cl)cccc2Cl)c(=O)[nH]/c1=C\c1ccoc1 [Compound 1542, (3Z,6Z)-3-(2,6-Dichlorobenzylidene)-6-(3-furylmethylene)-2,5-piperazinedione] | 1% | 1% | 9% | 41% | 75% | 50 to 100 µM
COc1ccc(/C=c2\[nH]c(=O)/c(=C/c3c[nH]c4ccccc34)[nH]c2=O)cc1 [Compound 1545, (3Z,6Z)-3-(3-Indolylmethylene)-6-(4-methoxybenzylidene)-2,5-piperazinedione] | 1% | 5% | 39% | 64% | 87% | 
CC(C)(C)OC(=O)n1cc(/C=c2\[nH]c(=O)/c(=C/c3c(Cl)cccc3Cl)[nH]c2=O)c2ccccc21 [Compound 1560, (3Z,6Z)-3-(2,6-Dichlorobenzylidene)-6-(1-tert-butoxycarbonyl-3-indolyl)methylene-2,5-piperazinedione] | 13% | 34% | 46% | 48% | 50% | 50 to 100 µM
CC(C)(C)OC(=O)n1cc(/C=c2\[nH]c(=O)/c(=C/c3cccs3)[nH]c2=O)c2ccccc21 [Compound 1618, (3Z,6Z)-3-(1-tert-butoxycarbonyl-3-indolyl)methylene-6-(2-thenylidene)-2,5-piperazinedione] |  | 1% | 3% | 32% | 51% | 50 to 100 µM
COc1ccc(/C=c2\[nH]c(=O)/c(=C/c3ccc(CN)cc3)[nH]c2=O)cc1 [Compound 1657, (3Z,6Z)-3-(4-Aminomethylbenzylidene)-6-(4-methoxybenzylidene)-2,5-piperazinedione] |  | 2% | 46% | 60% | 53% | 25 to 50 µM
CC(=O)Nc1ccc(/C=c2\[nH]c(=O)/c(=C/C3CCCCC3)[nH]c2=O)cc1 [Compound 1672] | 1% | 4% | 13% | 44% | 70% | 50 to 100 µM
CC(=O)Nc1ccc(/C=c2\[nH]c(=O)/c(=C/C=Cc3ccccc3)[nH]c2=O)cc1 [Compound 1676, (3Z,6Z)-3-(4-Acetamidobenzylidene)-6-cinnamylidene-2,5-piperazinedione] | 1% | 12% | 52% | 51% | 29% | 12 to 25 µM
COc1ccc(/C=c2\[nH]c(=O)/c(=C/c3cn(S(C)(=O)=O)c4ccccc34)[nH]c2=O)cc1 [Compound 1693, (3Z,6Z)-3-(1-methanesulfonyl-3-indolyl)methylene-6-(4-methoxybenzylidene)-2,5-piperazinedione] |  | 0% | 1% | 2% | 89% | 50 to 100 µM
COc1ccc(/C=c2\[nH]c(=O)/c(=C/c3cc4ccccc4[nH]3)[nH]c2=O)cc1 [Compound 1718, (3Z,6Z)-3-(2-Indolylmethylene)-6-(4-methoxybenzylidene)-2,5-piperazinedione] | 1% | 0% | 0% | 1% | 62% | 50 to 100 µM
O=c1[nH]/c(=C\c2ccc3c(c2)OCO3)c(=O)[nH]/c1=C\c1ccccc1 [Compound 1808, (3Z,6Z)-3-Benzylidene-6-(3,4-methylenedioxybenzylidene)-2,5-piperazinedione] | 1% | 2% | 73% | 48% | 76% | 
COc1ccc(/C=c2\[nH]c(=O)/c(=C/c3ccc4c(c3)OCO4)[nH]c2=O)cc1 [Compound 1809, (3Z,6Z)-3-(4-Methoxybenzylidene)-6-(3,4-methylenedioxybenzylidene)-2,5-piperazinedione] | 1% | 7% | 84% | 76% | 81% | 
CC(=O)Nc1ccc(/C=c2\[nH]c(=O)/c(=C/c3ccc4c(c3)OCO4)[nH]c2=O)cc1 [Compound 1845, (3Z,6Z)-3-(4-Acetamidobenzylidene)-6-(3,4-methylenedioxybenzylidene)-2,5-piperazinedione] | 53% | 60% | 49% | 30% | 14% | 
O=c1[nH]/c(=C\C2CCCCC2)c(=O)[nH]/c1=C\c1ccccc1 [Compound 1884, (3Z,6Z)-3-Benzylidene-6-cyclohexylmethylene-2,5-piperazinedione] | 0% | 0% | 0% | 14% | 40% | 
COc1ccc(/C=c2\[nH]c(=O)/c(=C/c3ccc(OC(=O)CN4C(=O)c5ccccc5C4=O)cc3)[nH]c2=O)cc1 [Compound 1886, (3Z,6Z)-3-(4-Methoxybenzylidene)-6-(4-phthalimidoacetoxybenzylidene)-2,5-piperazinedione] | 0% | 6% | 18% | 40% | 42% | 
CCOC(OCC)c1ccc(/C=c2\[nH]c(=O)/c(=C/c3ccccc3)[nH]c2=O)cc1 [Compound 1891] | 3% | 3% | 17% | 36% | 28% | 
